Reference: article PMC5366949, “The toxicity of angiotensin converting enzyme inhibitors to larvae of the disease vectors Aedes aegypti and Anopheles gambiae” (Scientific Reports, 2017)
Where two headings read alike, the source gives them in different places.

Legend:
[1] = tested on: T1, An. gambiae larval ACE (soluble peptidyl dipeptidase activity; one or both of AnoACE2 and AnoACE3); experiment: fluorogenic peptidase assay, larval high-speed supernatant; type: biochemical; details: substrate Abz-Phe-Arg-Lys(Dnp)-Pro-OH about 25 uM, pH 7.5, 50 mM NaCl, 10 uM ZnCl2, 20 C, 10 min pre-incubation, read-out: Anopheles gambiae / IC50
T1 construct: native; 55,000 g supernatant of whole 3rd instar larval homogenate, not purified; AnoACE2 and/or AnoACE3 inferred by the authors from soluble activity and larval expression
Text: fluorogenic peptidase assay, larval high-speed supernatant on An. gambiae larval ACE (soluble peptidyl dipeptidase activity; one or both of AnoACE2 and AnoACE3)

[2] = tested on: T2, Ae. aegypti larval ACE (soluble peptidyl dipeptidase activity); experiment: as above; type: biochemical; details: substrate Abz-Phe-Arg-Lys(Dnp)-Pro-OH about 25 uM, pH 7.5, 50 mM NaCl, 10 uM ZnCl2, 20 C, 10 min pre-incubation, read-out: Aedes aegypti / IC50
T2 construct: native; 55,000 g supernatant of whole 3rd instar larval homogenate, not purified; gene(s) not identified for this species
Text: fluorogenic peptidase assay, larval high-speed supernatant on Ae. aegypti larval ACE (soluble peptidyl dipeptidase activity)

SMILES | IC50 [1] [nM] | IC50 [2] [nM] | IC50 ([1]; pro-drug ester of fosinoprilat) [nM] | IC50 ([2]; pro-drug ester of fosinoprilat) [nM]
C[C@H](CS)C(=O)N1CCC[C@H]1C(=O)O [captopril] | 16.7 | 2.47 | – | –
O=C(O)[C@@H]1C[C@@H](C2CCCCC2)CN1C(=O)CP(=O)(O)CCCCc1ccccc1 [fosinoprilat] | 35.2 | 6.61 | – | –
CCC(=O)O[C@@H](O[P@](=O)(CCCCc1ccccc1)CC(=O)N1C[C@H](C2CCCCC2)C[C@H]1C(=O)O)C(C)C [fosinopril] | – | – | 326 | 373
